Test results: the NIST ThermoML archive (doi:10.1016/j.fluid.2017.09.019)
Numbers after ± are expanded uncertainties.

Experiment: wn = mass fraction of the nth substance listed
Details: 101 kPa, Liquid; for viscosity: Concentric cylinders viscometry; for mass density: Vibrating tube method

CC(O)CN(C)C (stereo not given) [1-(dimethylamino)-2-propanol] + O
Details | mass density [kg/m3] | viscosity [mPa·s]
298.15 K, w1 = 0.2 | 988.2 ± 2.4 | 2.407 ± 0.1
298.15 K, w1 = 0.25 | 986.5 ± 2.4 | 2.995 ± 0.1
298.15 K, w1 = 0.3 | 984.4 ± 2.4 | 3.886 ± 0.11
298.15 K, w1 = 0.35 | 979.5 ± 2.4 | 4.735 ± 0.11
298.15 K, w1 = 0.4 | 976.4 ± 2.4 | 5.67 ± 0.11
298.15 K, w1 = 0.45 | 970.3 ± 2.4 | 6.602 ± 0.12
298.15 K, w1 = 0.5 | 966.2 ± 2.4 | 7.632 ± 0.12
298.15 K, w1 = 0.6 | 949.4 ± 2.4 | 8.956 ± 0.13
298.15 K, w1 = 0.7 | 930.9 ± 2.4 | 9.925 ± 0.13
298.15 K, w1 = 0.8 | 908.8 ± 2.4 | 8.482 ± 0.12
298.15 K, w1 = 0.9 | 879.8 ± 2.4 | 5.585 ± 0.11
298.15 K, w1 = 0.95 | 863.9 ± 2.4 | 3.79 ± 0.11
298.15 K, w1 = 0.96 | 858.1 ± 2.4 | 3.282 ± 0.1
298.15 K, w1 = 0.98 | 852.4 ± 2.4 | 2.094 ± 0.1
298.15 K, w1 = 1 | 845.4 ± 2.4 | 1.332 ± 0.1
303.15 K, w1 = 0.2 | 985.7 ± 2.4 | 2.018 ± 0.1
303.15 K, w1 = 0.25 | 983.5 ± 2.4 | 2.51 ± 0.1
303.15 K, w1 = 0.3 | 981 ± 2.4 | 3.097 ± 0.1
303.15 K, w1 = 0.35 | 976.1 ± 2.4 | 3.805 ± 0.11
303.15 K, w1 = 0.4 | 972.1 ± 2.4 | 4.54 ± 0.11
303.15 K, w1 = 0.45 | 966.4 ± 2.4 | 5.187 ± 0.11
303.15 K, w1 = 0.5 | 962.1 ± 2.4 | 5.965 ± 0.12
303.15 K, w1 = 0.6 | 944.6 ± 2.4 | 6.964 ± 0.13
303.15 K, w1 = 0.7 | 925.3 ± 2.4 | 7.654 ± 0.13
303.15 K, w1 = 0.8 | 903.5 ± 2.4 | 6.762 ± 0.13
303.15 K, w1 = 0.9 | 875 ± 2.4 | 4.935 ± 0.11
303.15 K, w1 = 0.95 | 858.9 ± 2.4 | 3.199 ± 0.11
303.15 K, w1 = 0.96 | 853.1 ± 2.4 | 2.783 ± 0.1
303.15 K, w1 = 0.98 | 847.3 ± 2.4 | 1.875 ± 0.1
303.15 K, w1 = 1 | 840.3 ± 2.4 | 1.183 ± 0.1
308.15 K, w1 = 0.2 | 983 ± 2.4 | 1.738 ± 0.1
308.15 K, w1 = 0.25 | 980.6 ± 2.4 | 2.115 ± 0.1
308.15 K, w1 = 0.3 | 977.8 ± 2.4 | 2.559 ± 0.1
308.15 K, w1 = 0.35 | 972.4 ± 2.4 | 3.115 ± 0.1
308.15 K, w1 = 0.4 | 968.3 ± 2.4 | 3.647 ± 0.11
308.15 K, w1 = 0.45 | 961.8 ± 2.4 | 4.156 ± 0.11
308.15 K, w1 = 0.5 | 957.7 ± 2.4 | 4.75 ± 0.11
308.15 K, w1 = 0.6 | 940 ± 2.4 | 5.487 ± 0.12
308.15 K, w1 = 0.7 | 919.8 ± 2.4 | 6.02 ± 0.12
308.15 K, w1 = 0.8 | 899.1 ± 2.4 | 5.106 ± 0.12
308.15 K, w1 = 0.9 | 870.1 ± 2.4 | 3.396 ± 0.11
308.15 K, w1 = 0.95 | 854.1 ± 2.4 | 2.463 ± 0.1
308.15 K, w1 = 0.96 | 848.4 ± 2.4 | 2.211 ± 0.1
308.15 K, w1 = 0.98 | 842.4 ± 2.4 | 1.499 ± 0.1
308.15 K, w1 = 1 | 835.5 ± 2.4 | 1.059 ± 0.1
313.15 K, w1 = 0.2 | 980.4 ± 2.4 | 1.509 ± 0.1
313.15 K, w1 = 0.25 | 977.5 ± 2.4 | 1.803 ± 0.1
313.15 K, w1 = 0.3 | 973.6 ± 2.4 | 2.161 ± 0.1
313.15 K, w1 = 0.35 | 968.4 ± 2.4 | 2.587 ± 0.1
313.15 K, w1 = 0.4 | 964.1 ± 2.4 | 3.016 ± 0.1
313.15 K, w1 = 0.45 | 957.8 ± 2.4 | 3.375 ± 0.11
313.15 K, w1 = 0.5 | 953.4 ± 2.4 | 3.851 ± 0.11
313.15 K, w1 = 0.6 | 935.4 ± 2.4 | 4.387 ± 0.11
313.15 K, w1 = 0.7 | 915.8 ± 2.4 | 4.853 ± 0.11
313.15 K, w1 = 0.8 | 894.1 ± 2.4 | 4.197 ± 0.11
313.15 K, w1 = 0.9 | 865.3 ± 2.4 | 2.909 ± 0.1
313.15 K, w1 = 0.95 | 849.3 ± 2.4 | 2.048 ± 0.1
313.15 K, w1 = 0.96 | 843.6 ± 2.4 | 1.835 ± 0.1
313.15 K, w1 = 0.98 | 837.6 ± 2.4 | 1.322 ± 0.1
313.15 K, w1 = 1 | 830.7 ± 2.4 | 0.955 ± 0.1
318.15 K, w1 = 0.2 | 977.5 ± 2.4 | 1.325 ± 0.1
318.15 K, w1 = 0.25 | 974.3 ± 2.4 | 1.562 ± 0.1
318.15 K, w1 = 0.3 | 969.8 ± 2.4 | 1.852 ± 0.1
318.15 K, w1 = 0.35 | 964.1 ± 2.4 | 2.194 ± 0.1
318.15 K, w1 = 0.4 | 959.9 ± 2.4 | 2.523 ± 0.1
318.15 K, w1 = 0.45 | 953.6 ± 2.4 | 2.808 ± 0.1
318.15 K, w1 = 0.5 | 949 ± 2.4 | 3.178 ± 0.1
318.15 K, w1 = 0.6 | 930.7 ± 2.4 | 3.577 ± 0.11
318.15 K, w1 = 0.7 | 910.9 ± 2.4 | 3.973 ± 0.11
318.15 K, w1 = 0.8 | 889.4 ± 2.4 | 3.577 ± 0.11
318.15 K, w1 = 0.9 | 860.5 ± 2.4 | 2.629 ± 0.1
318.15 K, w1 = 0.95 | 844.4 ± 2.4 | 1.921 ± 0.1
318.15 K, w1 = 0.96 | 838.7 ± 2.4 | 1.735 ± 0.1
318.15 K, w1 = 0.98 | 832.6 ± 2.4 | 1.2 ± 0.1
318.15 K, w1 = 1 | 825.8 ± 2.4 | 0.866 ± 0.1
323.15 K, w1 = 0.2 | 974.2 ± 2.4 | 1.179 ± 0.1
323.15 K, w1 = 0.25 | 971 ± 2.4 | 1.363 ± 0.1
323.15 K, w1 = 0.3 | 966.2 ± 2.4 | 1.598 ± 0.1
323.15 K, w1 = 0.35 | 960.2 ± 2.4 | 1.868 ± 0.1
323.15 K, w1 = 0.4 | 955.5 ± 2.4 | 2.129 ± 0.1
323.15 K, w1 = 0.45 | 949.4 ± 2.4 | 2.36 ± 0.1
323.15 K, w1 = 0.5 | 944.5 ± 2.4 | 2.652 ± 0.1
323.15 K, w1 = 0.6 | 925.9 ± 2.4 | 2.974 ± 0.1
323.15 K, w1 = 0.7 | 906.8 ± 2.4 | 3.301 ± 0.1
323.15 K, w1 = 0.8 | 884.6 ± 2.4 | 2.909 ± 0.1
323.15 K, w1 = 0.9 | 855.9 ± 2.4 | 1.929 ± 0.1
323.15 K, w1 = 0.95 | 839.5 ± 2.4 | 1.357 ± 0.1
323.15 K, w1 = 0.96 | 833.8 ± 2.4 | 1.192 ± 0.1
323.15 K, w1 = 0.98 | 827.7 ± 2.4 | 1.003 ± 0.1
323.15 K, w1 = 1 | 820.9 ± 2.4 | 0.788 ± 0.1
328.15 K, w1 = 0.2 | 971.2 ± 2.4 | 1.05 ± 0.1
328.15 K, w1 = 0.25 | 967.6 ± 2.4 | 1.201 ± 0.1
328.15 K, w1 = 0.3 | 962.4 ± 2.4 | 1.402 ± 0.1
328.15 K, w1 = 0.35 | 955.6 ± 2.4 | 1.62 ± 0.1
328.15 K, w1 = 0.4 | 951.3 ± 2.4 | 1.821 ± 0.1
328.15 K, w1 = 0.45 | 944.2 ± 2.4 | 2.008 ± 0.1
328.15 K, w1 = 0.5 | 940.1 ± 2.4 | 2.239 ± 0.1
328.15 K, w1 = 0.6 | 921.2 ± 2.4 | 2.486 ± 0.1
328.15 K, w1 = 0.7 | 901.7 ± 2.4 | 2.781 ± 0.1
328.15 K, w1 = 0.8 | 880 ± 2.4 | 2.471 ± 0.1
328.15 K, w1 = 0.9 | 850.6 ± 2.4 | 1.824 ± 0.1
328.15 K, w1 = 0.95 | 834.6 ± 2.4 | 1.348 ± 0.1
328.15 K, w1 = 0.96 | 828.8 ± 2.4 | 1.208 ± 0.1
328.15 K, w1 = 0.98 | 822.8 ± 2.4 | 0.983 ± 0.1
328.15 K, w1 = 1 | 816 ± 2.4 | 0.72 ± 0.1
333.15 K, w1 = 0.2 | 967.8 ± 2.4 | 0.934 ± 0.1
333.15 K, w1 = 0.25 | 964.2 ± 2.4 | 1.067 ± 0.1
333.15 K, w1 = 0.3 | 958.4 ± 2.4 | 1.236 ± 0.1
333.15 K, w1 = 0.35 | 950.9 ± 2.4 | 1.483 ± 0.1
333.15 K, w1 = 0.4 | 946.7 ± 2.4 | 1.577 ± 0.1
333.15 K, w1 = 0.45 | 939.2 ± 2.4 | 1.724 ± 0.1
333.15 K, w1 = 0.5 | 936.1 ± 2.4 | 1.911 ± 0.1
333.15 K, w1 = 0.6 | 916 ± 2.4 | 2.106 ± 0.1
333.15 K, w1 = 0.7 | 897.1 ± 2.4 | 2.374 ± 0.1
333.15 K, w1 = 0.8 | 875.3 ± 2.4 | 2.182 ± 0.1
333.15 K, w1 = 0.9 | 845 ± 2.4 | 1.687 ± 0.1
333.15 K, w1 = 0.95 | 830.9 ± 2.4 | 1.236 ± 0.1
333.15 K, w1 = 0.96 | 823.8 ± 2.4 | 1.102 ± 0.1
333.15 K, w1 = 0.98 | 817.9 ± 2.4 | 0.853 ± 0.1
333.15 K, w1 = 1 | 811.1 ± 2.4 | 0.662 ± 0.1
